In US7632814B2, “HYD1 peptides as anti-cancer agents” (University of South Florida, priority 2006, dated 2009):
Entries after “also recorded” stand apart in the source; their conditions may differ. Where no end group is shown, it is not given here. [ ]: non-standard residue; d: D form.

How the values were obtained:
[1] = test system: phospho-Pyk2 in 8226 cells; test: Phospho-Pyk2 levels (immunoblot); type: cell-based
H929 cells = test: Electron microscopy of double membrane vesicles; type: cell-based; conditions: 100 μg/ml, 4 hours
Protocol: H929 cells were treated with either 100 µg/ml HYD1 (FIG. 24A) or HYD1S (FIG. 24B) for four hours and processed for electron microscopy as described in materials and methods.
Electron Microscopy. H929 cells were treated for four hours with either 100 μg/ml HYD1 or HYD1S. After peptide treatment, the samples were fixed overnight in 2.5% glutaraldehyde in 0.1M phosphate buffer, pH 7.2 overnight at four degrees. Following fixation, the cells were rinsed 2 times for 10 minutes each in 0.1M phosphate buffer, pH 7.2, at 4° C. The cells were loosely pelleted in microcentrifuge tubes at 500×G for 3 minutes. The buffer was removed from the cells and replaced with 1% osmium tetroxide in the above buffer at 4° C. The cells were resuspended and post-fixed for 1 hour, then loosely pelleted and rinsed in the above buffer. This step was repeated for a total of 3 rinses of 5 minutes each, with the cells being resuspended after each buffer change. Cells were dehydrated through a graded series of acetone, 30%, 50%, 70%, and 95% acetone in water, 5 minutes per change with loose pelleting at 750×G for 5 minutes, then resuspension for each step. The cells were then dehydrated through three changes of 100% acetone, 10 minutes per change, with a 5 minute pelleting step at 1000×G, followed by resuspension in each step. […]

prostate tumor cell = test: Random haptotaxis (cell migration) on laminin 322 (laminin 5); type: cell-based; conditions: soluble peptide, cells grown on ligand before treatment
From the text: Defining the minimal region of HYD1 necessary to potentiate drug-induced apoptosis in suspension and adherent cultures is of interest. Below is a study to determine the minimal HYD1 sequence required to block prostate tumor cell migration. Similar studies as those outlined below and using the same peptide sequences will be used to determine the minimal amino acid sequence required for potentiation of drug induced apoptosis.
This response to the peptide is independent of disrupting adhesion to laminin 322 (laminin 5) since the cells were grown on a ligand before treatment with the peptide. […] All other alanine-substitution mutants resulted cell migration, i.e., a loss of peptide activity.
Using the negative control scrambled peptide, HYDS (SEQ ID NO:44), to indicate 100% cell migration, several truncated peptides including, ikmviswkg (SEQ ID NO:22), kmviswkg (SEQ ID NO:39), and kikmviswk (SEQ ID NO:37) were effective at blocking cell migration by approximately 50%.

8226 MM = test: SCID-Hu in vivo model, tumor burden by circulating lambda levels; set-up: species or system SCID mice
Protocol: 8226 cells (50,000 cells per mice) were engrafted into implanted human bone for 28 days. Following tumor engraftment, mice were treated with either 2 mg/Kg HYD1 or HYD1S (I.P. daily). Appropriate mice were treated with 1.5 mg/kg melphalan (mel) on day 29 and day […] (I.P. injections). Tumor burden was measured by lambda levels on day 28 and day 35 (n=3 mice per group).
Tumor burden was measured by circulating lambda levels. On day 28 (before drug treatment) measurements were recorded for each individual mouse and subsequent values obtained weekly are represented as a ratio of day 28 (day X/day 28). N=4 mice per group. HYD1 was administered I.P. at 2 mg/kg daily for 14 days (starting day 28). Melphalan was administered I.P. at 1.5 mg/kg on day 29 and 32.
SCID-Hu model. […] At 28 days, baseline tumor burden was quantified in the sera using either a lambda (8226) or kappa (H929) ELISA kit per manufacture instructions (Bethyl, Montgomery, Tex.) and mice were randomized into treatment groups. […] Tumor burden was assessed weekly by measuring kappa or lambda levels in the sera.
The SCID-Hu model consists of implanting human fetal bone into the mammary mouse fat pad of SCID mice. […] Human paraprotein can be measured in the mouse sera and levels represent a good marker for evaluating tumor burden and response to chemotherapy. […]

“kikmviswkg ([dK][dI][dK][dM][dV][dI][dS][dW][dK]G) [HYD1]” was tested, and the phospho-Pyk2 levels [1] was “decreased levels of phospho-Pyk2”, the “formation of double membranes / vesicles (EM)” value (H929 cells) was “increased formation of double membranes” and the “blocking of random haptotaxis on laminin 322 (laminin 5)” value (prostate tumor cell) was “completely blocks random haptotaxis”. For the same substance, the “tumor burden (lambda levels), combination with melphalan” value (8226 MM; 8226, 2 mg/kg HYD1 I.P. daily with 1.5 mg/kg melphalan I.P.) was “greatest reduction in tumor burden; also recorded: enhances melphalan induced cell death” and the “tumor burden (circulating lambda levels, day X/day 28), single agent” value (8226 MM; 8226, 2 mg/kg I.P. daily for 14 days starting day 28) was “antitumor activity was detected; also recorded: reduces 8226 MM growth in vivo”.
